{"source": "ChEMBL document CHEMBL5465560", "about": "“Selectivity Literature for EUbOPEN Chemogenomic Library” (2024)", "key": {"SRSF protein kinase 1": {"biological_target": "SRSF protein kinase 1 (Homo sapiens, UniProt Q96SB4)", "sequence (Q96SB4 whole entry)": "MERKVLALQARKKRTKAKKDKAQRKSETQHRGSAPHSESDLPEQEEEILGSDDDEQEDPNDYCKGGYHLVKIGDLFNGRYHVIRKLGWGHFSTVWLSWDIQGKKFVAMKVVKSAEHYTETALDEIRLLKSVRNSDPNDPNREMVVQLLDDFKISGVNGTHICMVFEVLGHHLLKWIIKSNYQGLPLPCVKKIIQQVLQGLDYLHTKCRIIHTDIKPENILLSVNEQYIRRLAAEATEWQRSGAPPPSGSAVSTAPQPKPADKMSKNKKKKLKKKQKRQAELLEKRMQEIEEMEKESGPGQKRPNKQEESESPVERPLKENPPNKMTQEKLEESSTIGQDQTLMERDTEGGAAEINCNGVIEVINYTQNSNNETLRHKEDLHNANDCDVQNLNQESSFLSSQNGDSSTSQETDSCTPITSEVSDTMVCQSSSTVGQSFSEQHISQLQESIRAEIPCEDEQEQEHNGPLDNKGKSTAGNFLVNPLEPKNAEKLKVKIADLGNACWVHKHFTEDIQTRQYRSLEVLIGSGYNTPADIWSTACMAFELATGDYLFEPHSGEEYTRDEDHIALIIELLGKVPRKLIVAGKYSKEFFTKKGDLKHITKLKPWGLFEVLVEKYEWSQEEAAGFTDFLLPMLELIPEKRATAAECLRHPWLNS", "experiment": "Selectivity interaction (KinomeScan (DiscoverX)) EUB0001079a SRPK1", "conditions": "at 1 µM"}, "[1]": {"system": "Dual specificity mitogen-activated protein kinase kinase 1 (Homo sapiens), Q02750 [S218D,S222D]", "sequence (Q02750 whole entry S218D/S222D)": "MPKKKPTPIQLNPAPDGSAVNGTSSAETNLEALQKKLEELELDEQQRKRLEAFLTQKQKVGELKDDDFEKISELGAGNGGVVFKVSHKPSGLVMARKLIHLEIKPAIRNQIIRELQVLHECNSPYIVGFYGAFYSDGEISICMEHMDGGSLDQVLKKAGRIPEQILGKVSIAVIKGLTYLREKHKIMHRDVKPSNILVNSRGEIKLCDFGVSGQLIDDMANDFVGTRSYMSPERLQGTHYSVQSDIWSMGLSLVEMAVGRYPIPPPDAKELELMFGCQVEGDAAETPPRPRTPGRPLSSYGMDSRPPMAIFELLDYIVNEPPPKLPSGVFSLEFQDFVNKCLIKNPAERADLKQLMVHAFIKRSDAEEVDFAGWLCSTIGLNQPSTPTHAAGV", "experiment": "(§1) Selectivity interaction (LanthaScreen Eu Kinase Binding Assay) EUB0001632a MAP2K1", "conditions": "at 10 µM"}, "[2]": {"biological_target": "Dual specificity mitogen-activated protein kinase kinase 1 (Homo sapiens, UniProt Q02750)", "sequence (Q02750 whole entry)": "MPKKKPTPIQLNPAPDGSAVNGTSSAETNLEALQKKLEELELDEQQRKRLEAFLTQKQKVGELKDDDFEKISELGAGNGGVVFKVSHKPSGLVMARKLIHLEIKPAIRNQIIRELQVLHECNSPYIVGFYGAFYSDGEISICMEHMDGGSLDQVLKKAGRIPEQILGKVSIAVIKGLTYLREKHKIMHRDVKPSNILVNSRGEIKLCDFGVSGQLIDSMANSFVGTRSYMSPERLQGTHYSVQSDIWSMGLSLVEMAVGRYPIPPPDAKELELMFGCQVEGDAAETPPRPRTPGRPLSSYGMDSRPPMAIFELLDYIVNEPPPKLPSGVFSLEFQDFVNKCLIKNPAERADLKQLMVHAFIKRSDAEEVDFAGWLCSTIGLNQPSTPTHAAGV", "experiment": "as §1", "conditions": "at 10 µM"}, "[3]": {"biological_target": "Mitogen-activated protein kinase kinase kinase kinase 4 (Homo sapiens, UniProt O95819)", "sequence (O95819 2-1239 limits assumed)": "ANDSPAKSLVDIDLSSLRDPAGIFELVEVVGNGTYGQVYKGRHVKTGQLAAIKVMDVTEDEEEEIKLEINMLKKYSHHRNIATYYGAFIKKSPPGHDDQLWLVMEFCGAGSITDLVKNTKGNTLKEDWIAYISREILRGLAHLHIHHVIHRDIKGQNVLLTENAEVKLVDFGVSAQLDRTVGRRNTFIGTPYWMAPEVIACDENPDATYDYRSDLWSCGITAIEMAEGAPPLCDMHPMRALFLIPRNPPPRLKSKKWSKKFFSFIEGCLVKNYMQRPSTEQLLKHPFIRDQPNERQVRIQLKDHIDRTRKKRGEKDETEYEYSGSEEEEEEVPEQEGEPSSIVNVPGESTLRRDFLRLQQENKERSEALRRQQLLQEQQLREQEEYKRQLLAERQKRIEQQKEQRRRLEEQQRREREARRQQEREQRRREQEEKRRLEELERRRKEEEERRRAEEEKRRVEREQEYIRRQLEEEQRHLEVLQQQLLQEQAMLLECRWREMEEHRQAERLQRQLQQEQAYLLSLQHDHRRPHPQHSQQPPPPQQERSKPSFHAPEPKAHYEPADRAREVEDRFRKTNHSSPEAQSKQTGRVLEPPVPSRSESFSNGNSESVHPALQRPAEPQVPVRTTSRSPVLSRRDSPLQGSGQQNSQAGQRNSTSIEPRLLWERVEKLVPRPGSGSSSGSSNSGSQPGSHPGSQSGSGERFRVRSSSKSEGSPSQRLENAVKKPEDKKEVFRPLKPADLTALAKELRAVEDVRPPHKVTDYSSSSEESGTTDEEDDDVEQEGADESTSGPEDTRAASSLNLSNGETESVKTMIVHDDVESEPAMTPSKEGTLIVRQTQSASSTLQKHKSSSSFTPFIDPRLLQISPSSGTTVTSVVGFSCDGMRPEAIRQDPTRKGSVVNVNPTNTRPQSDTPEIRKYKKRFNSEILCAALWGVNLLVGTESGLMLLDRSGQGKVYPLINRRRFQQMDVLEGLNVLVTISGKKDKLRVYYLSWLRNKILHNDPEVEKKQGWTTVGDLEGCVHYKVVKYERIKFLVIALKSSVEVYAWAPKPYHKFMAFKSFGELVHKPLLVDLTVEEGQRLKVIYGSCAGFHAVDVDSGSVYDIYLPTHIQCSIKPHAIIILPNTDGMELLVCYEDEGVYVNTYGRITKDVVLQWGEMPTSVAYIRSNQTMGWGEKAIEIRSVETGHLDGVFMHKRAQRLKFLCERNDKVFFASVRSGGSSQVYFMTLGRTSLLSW", "experiment": "Selectivity interaction (ProQinase) EUB0000171b MAP4K4"}, "[4]": {"biological_target": "T1, Serine/threonine-protein kinase TNNI3K (Homo sapiens) (UniProt Q59H18)", "T1 sequence (whole entry)": "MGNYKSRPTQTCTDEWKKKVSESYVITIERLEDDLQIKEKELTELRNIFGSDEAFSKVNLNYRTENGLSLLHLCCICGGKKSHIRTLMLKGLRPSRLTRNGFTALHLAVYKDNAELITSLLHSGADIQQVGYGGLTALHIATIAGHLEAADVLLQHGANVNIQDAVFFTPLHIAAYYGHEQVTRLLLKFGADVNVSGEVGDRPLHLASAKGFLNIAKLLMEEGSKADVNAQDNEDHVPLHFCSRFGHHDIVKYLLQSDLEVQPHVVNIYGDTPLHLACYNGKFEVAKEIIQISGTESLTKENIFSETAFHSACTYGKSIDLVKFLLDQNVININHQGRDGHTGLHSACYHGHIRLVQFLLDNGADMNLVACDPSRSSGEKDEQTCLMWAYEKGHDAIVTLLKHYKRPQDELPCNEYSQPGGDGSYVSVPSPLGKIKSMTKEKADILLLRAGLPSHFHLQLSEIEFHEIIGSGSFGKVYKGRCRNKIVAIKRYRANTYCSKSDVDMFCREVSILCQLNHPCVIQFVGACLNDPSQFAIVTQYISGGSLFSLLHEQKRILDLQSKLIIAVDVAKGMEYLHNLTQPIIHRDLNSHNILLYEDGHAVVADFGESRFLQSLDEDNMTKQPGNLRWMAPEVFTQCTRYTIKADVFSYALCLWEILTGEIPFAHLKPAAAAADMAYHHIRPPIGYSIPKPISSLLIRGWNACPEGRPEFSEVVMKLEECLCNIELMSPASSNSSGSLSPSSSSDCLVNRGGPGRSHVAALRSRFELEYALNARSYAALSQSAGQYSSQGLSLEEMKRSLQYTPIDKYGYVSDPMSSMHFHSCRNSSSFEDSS", "experiment": "Selectivity interaction (KinomeScan (DiscoverX)) EUB0001619a TNNI3K", "conditions": "at 1 µM"}, "[5]": {"biological_target": "Macrophage colony-stimulating factor 1 receptor (Homo sapiens) (UniProt P07333)", "sequence (P07333 whole entry)": "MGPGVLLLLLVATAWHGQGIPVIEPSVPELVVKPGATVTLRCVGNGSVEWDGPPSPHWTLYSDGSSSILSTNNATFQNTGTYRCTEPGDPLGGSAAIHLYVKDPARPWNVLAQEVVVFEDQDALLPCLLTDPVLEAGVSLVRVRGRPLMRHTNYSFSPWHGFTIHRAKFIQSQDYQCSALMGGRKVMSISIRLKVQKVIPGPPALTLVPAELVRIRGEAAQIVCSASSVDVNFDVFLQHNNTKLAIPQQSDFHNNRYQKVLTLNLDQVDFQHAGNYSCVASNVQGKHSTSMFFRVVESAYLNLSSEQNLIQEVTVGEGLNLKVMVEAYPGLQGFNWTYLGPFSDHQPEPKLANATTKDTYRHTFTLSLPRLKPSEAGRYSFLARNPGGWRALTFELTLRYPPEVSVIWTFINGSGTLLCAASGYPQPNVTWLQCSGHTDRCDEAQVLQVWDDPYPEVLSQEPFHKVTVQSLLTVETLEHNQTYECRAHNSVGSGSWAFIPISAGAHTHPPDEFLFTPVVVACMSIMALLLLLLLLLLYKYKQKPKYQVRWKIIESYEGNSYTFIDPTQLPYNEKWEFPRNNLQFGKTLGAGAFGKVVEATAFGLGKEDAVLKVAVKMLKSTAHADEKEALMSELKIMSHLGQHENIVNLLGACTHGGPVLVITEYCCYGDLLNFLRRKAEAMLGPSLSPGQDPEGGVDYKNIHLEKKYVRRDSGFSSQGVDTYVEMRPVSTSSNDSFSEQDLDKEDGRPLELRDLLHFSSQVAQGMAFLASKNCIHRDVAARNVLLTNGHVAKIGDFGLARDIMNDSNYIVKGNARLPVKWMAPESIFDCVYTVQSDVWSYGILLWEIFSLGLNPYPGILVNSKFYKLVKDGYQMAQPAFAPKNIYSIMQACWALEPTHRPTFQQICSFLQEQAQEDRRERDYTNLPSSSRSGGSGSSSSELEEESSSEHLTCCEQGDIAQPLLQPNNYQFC", "experiment": "Selectivity interaction (KinaseProfiler screening (Millipore)) EUB0000601a CSF1R", "conditions": "at 3 µM"}, "[6]": {"biological_target": "T2, Serine/threonine-protein kinase BRSK2 (Homo sapiens) (UniProt Q8IWQ3)", "T2 sequence (whole entry)": "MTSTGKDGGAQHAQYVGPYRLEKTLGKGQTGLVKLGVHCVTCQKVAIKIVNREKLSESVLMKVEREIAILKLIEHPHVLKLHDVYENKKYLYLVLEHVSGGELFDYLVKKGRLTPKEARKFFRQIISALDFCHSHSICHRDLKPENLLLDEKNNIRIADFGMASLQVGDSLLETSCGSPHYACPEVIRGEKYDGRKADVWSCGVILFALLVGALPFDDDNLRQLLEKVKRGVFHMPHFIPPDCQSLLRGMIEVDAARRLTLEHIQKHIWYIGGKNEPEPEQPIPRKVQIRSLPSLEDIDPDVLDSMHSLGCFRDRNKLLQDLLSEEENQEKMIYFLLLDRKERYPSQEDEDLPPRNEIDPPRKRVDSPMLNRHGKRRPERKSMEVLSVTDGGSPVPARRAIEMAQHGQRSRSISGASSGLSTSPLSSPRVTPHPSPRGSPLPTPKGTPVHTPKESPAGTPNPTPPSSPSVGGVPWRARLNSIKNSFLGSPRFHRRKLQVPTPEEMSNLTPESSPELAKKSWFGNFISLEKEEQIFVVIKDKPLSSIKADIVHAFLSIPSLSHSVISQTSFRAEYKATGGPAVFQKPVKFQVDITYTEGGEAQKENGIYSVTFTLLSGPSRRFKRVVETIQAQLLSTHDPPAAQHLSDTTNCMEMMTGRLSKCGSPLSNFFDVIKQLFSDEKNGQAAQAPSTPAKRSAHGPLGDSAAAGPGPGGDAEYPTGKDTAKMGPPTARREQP", "experiment": "Selectivity interaction (KinomeScan (DiscoverX)) EUB0000618a BRSK2", "conditions": "at 10 µM"}, "[7]": {"biological_target": "T3, MAP/microtubule affinity-regulating kinase 4 (Homo sapiens) (UniProt Q96L34)", "T3 sequence (whole entry)": "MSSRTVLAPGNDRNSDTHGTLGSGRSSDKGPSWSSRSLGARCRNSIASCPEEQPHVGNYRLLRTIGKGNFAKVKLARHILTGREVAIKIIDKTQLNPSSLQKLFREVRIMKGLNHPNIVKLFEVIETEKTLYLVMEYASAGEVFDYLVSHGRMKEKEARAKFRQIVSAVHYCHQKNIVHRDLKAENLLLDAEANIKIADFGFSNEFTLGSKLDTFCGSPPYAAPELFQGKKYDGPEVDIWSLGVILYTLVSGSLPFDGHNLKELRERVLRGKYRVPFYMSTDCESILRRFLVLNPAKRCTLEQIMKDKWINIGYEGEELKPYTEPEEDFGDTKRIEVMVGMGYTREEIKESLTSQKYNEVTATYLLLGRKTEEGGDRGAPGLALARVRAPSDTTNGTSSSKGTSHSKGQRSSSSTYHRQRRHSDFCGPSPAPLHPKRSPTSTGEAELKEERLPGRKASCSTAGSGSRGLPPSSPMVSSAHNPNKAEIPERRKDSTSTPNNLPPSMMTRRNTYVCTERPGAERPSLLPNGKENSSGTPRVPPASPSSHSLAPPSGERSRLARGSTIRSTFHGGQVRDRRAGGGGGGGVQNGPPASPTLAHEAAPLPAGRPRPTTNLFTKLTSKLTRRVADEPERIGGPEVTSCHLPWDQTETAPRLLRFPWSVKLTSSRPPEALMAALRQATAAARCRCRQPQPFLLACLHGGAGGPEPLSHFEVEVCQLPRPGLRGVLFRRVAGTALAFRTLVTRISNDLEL", "experiment": "Selectivity interaction (ActivX KiNativ screen (kinase selectivity in THP-1 cell lysates)) EUB0000639a MARK4", "type": "subcellular", "conditions": "lysate, at 0.04 µM"}, "[8]": {"biological_target": "Protein-tyrosine kinase 2-beta (Homo sapiens) (UniProt Q14289)", "sequence (Q14289 whole entry, looked up)": "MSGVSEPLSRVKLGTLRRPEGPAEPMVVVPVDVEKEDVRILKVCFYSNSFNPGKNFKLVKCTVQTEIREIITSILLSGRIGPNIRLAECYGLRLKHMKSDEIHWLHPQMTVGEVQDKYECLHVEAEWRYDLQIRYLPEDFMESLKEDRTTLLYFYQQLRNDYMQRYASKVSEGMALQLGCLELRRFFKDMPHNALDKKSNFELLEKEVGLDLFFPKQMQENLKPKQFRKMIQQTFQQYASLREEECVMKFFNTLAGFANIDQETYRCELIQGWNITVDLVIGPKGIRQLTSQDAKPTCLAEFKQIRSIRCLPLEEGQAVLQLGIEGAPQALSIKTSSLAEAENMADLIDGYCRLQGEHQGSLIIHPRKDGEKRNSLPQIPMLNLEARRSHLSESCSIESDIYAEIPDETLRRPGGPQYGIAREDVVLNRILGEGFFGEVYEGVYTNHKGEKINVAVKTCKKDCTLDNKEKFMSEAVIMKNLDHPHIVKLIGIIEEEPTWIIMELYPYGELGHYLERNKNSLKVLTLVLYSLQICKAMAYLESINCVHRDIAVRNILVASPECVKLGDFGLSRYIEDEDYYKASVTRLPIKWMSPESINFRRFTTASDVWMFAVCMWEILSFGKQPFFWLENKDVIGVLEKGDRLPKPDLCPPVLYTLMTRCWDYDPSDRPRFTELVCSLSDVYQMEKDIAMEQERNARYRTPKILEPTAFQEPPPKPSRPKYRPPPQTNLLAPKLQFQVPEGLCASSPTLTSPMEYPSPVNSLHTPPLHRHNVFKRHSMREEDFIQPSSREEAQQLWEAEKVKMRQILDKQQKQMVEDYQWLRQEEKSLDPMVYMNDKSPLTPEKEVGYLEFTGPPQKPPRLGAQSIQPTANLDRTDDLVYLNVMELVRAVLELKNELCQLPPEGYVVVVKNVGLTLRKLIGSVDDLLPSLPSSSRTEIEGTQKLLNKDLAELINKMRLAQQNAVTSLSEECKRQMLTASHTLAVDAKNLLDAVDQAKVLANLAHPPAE", "experiment": "Selectivity interaction (ActivX KiNativ screen (kinase selectivity in THP-1 cell lysates)) EUB0000639a PTK2B", "type": "subcellular", "conditions": "lysate"}}, "data": [{"smiles": "Nc1cnc(N2CCc3cc(S(=O)(=O)Nc4c(F)cc(Cl)cc4F)cc(N4CCCC4=O)c32)nc1", "note": "[TP-020n]", "values": [{"measurement": "% of control", "setting": "SRSF protein kinase 1", "value": 81, "unit": "%"}]}, {"smiles": "Cn1cc(-n2cnc3c(NCc4nc5cc(Cl)c(Cl)cc5[nH]4)nc(N4CCOCC4)nc32)cn1", "values": [{"measurement": "% of inhibition", "setting": "[1]", "value": -20.2, "unit": "%"}, {"measurement": "% of inhibition", "setting": "[2]", "value": -15.4, "unit": "%"}]}, {"smiles": "C=CC(=O)Nc1cccc(C(=O)Nc2ccc(Nc3cc(-c4[nH]c(SC)nc4C)ccn3)cc2)c1", "values": [{"measurement": "% of control", "setting": "[3]; at 1 µM", "value": 79, "unit": "%"}, {"measurement": "% of control", "setting": "[3]; at 5 µM", "value": 55, "unit": "%"}]}, {"smiles": "N#Cc1cccc(-c2c[nH]c3ncnc(N4CCOCC4)c23)c1", "values": [{"measurement": "% of control", "setting": "[4]", "value": 74, "unit": "%"}]}, {"smiles": "CCc1cc(Nc2nccc(-c3c(-c4ccc(OC)c(C(=O)Nc5c(F)cccc5F)c4)nc4ccccn34)n2)c(OC)cc1N1CCC(N2CCN(S(C)(=O)=O)CC2)CC1", "values": [{"measurement": "% of inhibition", "setting": "[5]", "value": 50, "unit": "%"}]}, {"smiles": "O[C@H]1CC[C@H](Nc2ncc3nc(Nc4c(F)cc(F)cc4F)n([C@H]4CCOC4)c3n2)CC1", "values": [{"measurement": "% of control", "setting": "[6]", "value": 99, "unit": "%"}]}, {"smiles": "CC[C@@H]1[C@H](F)C(=O)N[C@@H]1COc1nccc2cc(C(N)=O)c(OC)cc12", "note": "[ZIMLOVISERTIB]", "values": [{"measurement": "% of inhibition", "setting": "[7]", "value": 15.9, "unit": "%"}, {"measurement": "% of inhibition", "setting": "[8]; at 0.01 µM", "value": -13.4, "unit": "%"}, {"measurement": "% of inhibition", "setting": "[8]; at 0.04 µM", "value": 9.7, "unit": "%"}, {"measurement": "% of inhibition", "setting": "[8]; at 0.2 µM", "value": -2.6, "unit": "%"}, {"measurement": "% of inhibition", "setting": "[8]; at 1 µM", "value": -0.1, "unit": "%"}, {"measurement": "% of inhibition", "setting": "[8]; at 5 µM", "value": -10.1, "unit": "%"}]}]}
